The NIST ThermoML archive (doi:10.1021/je060107n)

Assay: mn = molality of the nth substance listed, in mol/kg
Settings: 101 kPa, Liquid; for mass density: Pycnometric method; for viscosity: Capillary tube (Ostwald / Ubbelohde) method; for speed of sound: Linear variable-path acoustic interferometer

CC(=O)[O-].CC(=O)[O-].[Mg+2] [magnesium acetate] + O
Settings	mass density [kg/m3]	speed of sound [m/s]	viscosity [mPa·s]
319.95 K, m1 = 3.043	1164.1	–	–
319.95 K, m1 = 4.547	1219.5	–	–
319.95 K, m1 = 6.545	1273.9	–	–
320 K, m1 = 0.1671	1001.7	–	–
320.85 K, m1 = 0.0414	991.94	–	–
320.85 K, m1 = 5.732	1253	–	–
320.95 K, m1 = 1.106	1065.8	–	–
321.4 K, m1 = 0.646	1035.4	–	–
321.55 K, m1 = 6.187	1265.1	–	–
321.7 K, m1 = 3.819	1194.7	–	–
321.8 K, m1 = 6.545	1272.5	–	–
322.15 K, m1 = 0.4247	1019.9	–	–
322.15 K, m1 = 3.043	1162.9	–	–
322.3 K, m1 = 0.1671	1000.8	–	–
322.45 K, m1 = 5.165	1236.5	–	–
322.85 K, m1 = 1.866	1107.1	–	–
323.05 K, m1 = 1.106	1064.8	–	–
323.05 K, m1 = 1.327	1077.2	–	–
323.05 K, m1 = 2.411	1135.8	–	–
323.15 K, m1 = 0.0414	990.94	1544.5	0.5741
323.15 K, m1 = 0.0831	–	1549.2	0.5893
323.15 K, m1 = 0.1671	–	1557.7	0.6282
323.15 K, m1 = 0.4247	–	1591.1	0.7596
323.15 K, m1 = 0.646	–	1615.2	0.9059
323.15 K, m1 = 0.8751	–	1637.7	1.052
323.15 K, m1 = 1.106	–	1662.2	1.271
323.15 K, m1 = 1.354	–	1683.9	1.503
323.15 K, m1 = 1.608	–	1703.7	1.503
323.15 K, m1 = 1.866	–	1725	2.166
323.15 K, m1 = 2.134	–	1746.5	2.61
323.15 K, m1 = 2.411	–	1767.3	3.295
323.15 K, m1 = 2.622	–	1778.6	3.695
323.15 K, m1 = 3.043	–	1800.3	4.961
323.15 K, m1 = 3.437	–	1825	7.136
323.15 K, m1 = 3.819	–	1837.4	–
323.15 K, m1 = 4.001	–	–	10.52
323.15 K, m1 = 4.547	–	1857.2	–
323.15 K, m1 = 4.563	–	–	15.97
323.15 K, m1 = 4.929	–	–	19.29
323.15 K, m1 = 5.165	–	1871	–
323.15 K, m1 = 5.41	–	–	32.16
323.15 K, m1 = 5.732	–	1874.6	41.44
323.15 K, m1 = 6.187	–	–	65.72
323.45 K, m1 = 6.545	1271.3	–	–
323.5 K, m1 = 2.622	1143.8	–	–
323.65 K, m1 = 1.354	1078.3	–	–
323.75 K, m1 = 0.646	1034.3	–	–
323.75 K, m1 = 3.437	1181.9	–	–
323.75 K, m1 = 4.547	1217.1	–	–
323.95 K, m1 = 0.8751	1048.7	–	–
323.95 K, m1 = 2.134	1120.5	–	–
324.05 K, m1 = 1.608	1093.3	–	–
324.1 K, m1 = 0.0831	993.76	–	–
324.25 K, m1 = 0.4247	1018.8	–	–
324.25 K, m1 = 5.165	1235.2	–	–
324.55 K, m1 = 5.732	1250.4	–	–
325.15 K, m1 = 6.187	1262.4	–	–
325.25 K, m1 = 6.545	1269.9	–	–
325.75 K, m1 = 3.819	1192.2	–	–
328.55 K, m1 = 6.187	1259.8	–	–
